Earlier results in US20110033506A1, “COMBINATION DOSAGE FORM OF LOW-DOSE MODAFINIL AND LOW-DOSE SILDENAFIL” (priority 2008, published 2011).

System: hamsters
Conditions: Agostino et al, PNAS 2007

Question: Which “re-establishing disrupted circadian rhythms (jet lag)” value does the source give for `CCCc1nn(C)c2c(=O)[nH]c(-c3cc(S(=O)(=O)N4CCN(C)CC4)ccc3OCC)nc12.O=C(O)CC(O)(CC(=O)O)C(=O)O` [Sildenafil, 1-[[3-(6,7-dihydro-1-methyl-7-oxo-3-propyl-1H-pyrazolo[4,3-d]pyrimidin-5-yl)-4-ethoxyphenyl]sulfonyl]-4-methylpiperazine] here?
Answer: effective in re-establishing disrupted circadian rhythms
